Consider three compounds from US9840532B2, “5′-substituted nucleoside compounds” (Eli Lilly and Company, priority 2015, dated 2017).

For orientation: IC50 means the concentration needed to halve the response being measured. Lower therefore signals inhibition by little substance. The term ED50 denotes the dose at which the effect has come halfway, by size or by number of responders.

Molecules are shown by their SMILES. A value given as a limit tells only on which side of the number the result lay.

The subject of test [1] is A375 cells. Put plainly: Protocol Proliferation 7-day (CELL TITER-GLO). Conditions: Homo sapiens, A-375, 168 h, 7 days, Mean ± SEM. It counts as cell-based. As for the experimental part: The purpose of this assay is to measure the ability of test compounds to inhibit proliferation of cancer cells.
On day 1, plate A375 cells (ATCC, DMEM high glucose/10% Hi FBS) at 250 cells/well (100 μL/well) in a 96-well assay plate (BD Falcon 35-3219). Incubate the plates in a 37° C. incubator (5% CO2) for 18-24 hr. On day 2, prepare and serially dilute test compounds in medium (1:2 10-point serial dilution) from compound stock solutions (10 mM in 100% DMSO). Add 10 μL of serial diluted test compounds to cell plates (0.2% DMSO final concentration). Add 10 μL of reference compound (Example 1) to column 1 of cell plates (20 μM final, 0.2% DMSO). Incubate cell plates at 37° C./5% CO2 for 7 days. On day nine, thaw the CELL TITER-GLO® (Promega #G7571) buffer and equilibrate to room temperature prior to use. Also, equilibrate the lyophilized CELL TITER-GLO® substrate to room temperature prior to use. Transfer CELL TITER-GLO® buffer to an amber substrate bottle to reconstitute the lyophilized enzyme/substrate mixture to form the CELL TITER-GLO® reagent. Equilibrate the cell plate(s) to room temperature for […] Gently remove media in cell plates by flicking and blotting on a stack of paper towels. Add CELL TITER-GLO® reagent (25 μL) to each well. Incubate plates for […] at room temperature before reading. Measure luminescence using PERKIN-ELMER® ENVISION® Multi-label Plate Reader. Analyze this luminescence data by a 4-parameter curve fit using Activity Base, to yield cell proliferation IC50 values.
In general terms: In ATP-based viability assays light output follows the ATP content of the culture.

The subject of test [2] is PRMT5-mediated retention of exon 6 in the processed MDM4 mRNA in A375 tumor cells. Put plainly: Mouse A375 Xenograft Tumor MDM4 Exon5/6 RNA Splicing Assay. The test is classed as in vivo. Conditions: A-375, PO given QD or BID, tumors 4 hr after last dose, 4 days of dosing, read-out: dose achieving 50% effect (ED50). As to the method: The purpose of this assay is to measure the ability of a test compound to inhibit PRMT5-mediated retention of exon 6 in the processed MDM4 mRNA in A375 tumor cells in a mouse tumor xenograft model. This assay represents the effect of a test compound on specific PRMT5-mediated splicing events in tumors in an animal model.
Grow A375 cells in medium (DMEM high glucose/10% Hi FBS) at 37° C. in an incubator (5% CO2) for 18-24 hr. Mix the cells with MATRIGEL® (1:1) and implant the cells (5×10^6/animal) subcutaneously into the rear flank of the mice (female nude mice, Harlan). The implanted tumor cells grow as solid tumors. Measure the tumor volume and body weight twice a week with a caliper. After tumor volume reaches approximately 200-250 mm^3 (about 20 days after implant), randomize the animals, and group them into compound treatment groups. Administer the test compounds (formulated in SWFI with 1% HEC/0.25% TWEEN® 80/0.05% Antifoam) by oral gavage. Test compound doses are in the range of 3 to 100 mg/kg. Sacrifice mice 4 hr after the last dose (4 days of dosing).
Harvest tumor tissues and homogenize as described below. Place tumor samples in a bowl and add 1 mL of liquid N2. Squash the tumor in the bowl. Transfer small pieces of tumor (about 20 mg each) into 2 lysing matrix D tubes (MPBIO cat. #6913-250). Use one tube for RNA processing and the other for protein lysate preparation. For RNA processing, homogenize the tumor tissues in an RNEASY® Mini Kit (QIAGEN-74104) extraction buffer (0.5 mL each) for 30 seconds using a Bio101 FastPrep FP120 homogenizer (setting 6). Total RNA is purified with QUARTZY® RNEASY® Mini Kit −50 (QIAGEN-74104, RNEASY® Mini Handbook, Fourth Edition, June 2012). Check the RNA concentration to ensure OD 260/280 […]≧1.9. For cDNA synthesis use A&B APPLIED BIOSYSTEMS®, High Capacity cDNA Reverse Transcription Kit (cat. #4368813). Use 1 μg total RNA (10 μL) in each RT reaction volume of 20 μL, containing 10×RT Buffer—2.0 μL; 25×dNTP Mix (100 mM)—0.8 μL; 10×RT Random Primers—2.0 μL; MULTISCRIBE™ Reverse Transcriptase—1.0 μL; Nuclease-free H2O—[…]. […]

In turn, `Nc1ncnc2c1ccn2[C@@H]1O[C@H]([C@H](O)c2ccccc2)[C@@H](O)[C@H]1O` [Example 2, (2R,3R,4S,5R)-2-(4-Aminopyrrolo[2,3-d]pyrimidin-7-yl)-5[(R)-hydroxy(phenyl)methyl]tetrahydrofuran-3,4-diol] yielded an IC50 in test [1] of 31.5 nM. Moreover, the ED50 in test [2] was ≤ 30 mg/kg.

Turning to `Nc1ncnc2c1ccn2[C@@H]1O[C@H]([C@H](O)c2ccc(Cl)cc2)[C@@H](O)[C@H]1O` [Example 1, (2R,3R,4S,5R)-2-(4-Aminopyrrolo[2,3-d]pyrimidin-7-yl)-5-[(R)-(4-chlorophenyl)-hydroxy-methyl]tetrahydrofuran-3,4-diol], the IC50 in test [1] was determined as 10.8 nM. In test [2], the ED50 was ≤ 30 mg/kg.

Consider `C[C@@](O)(c1ccc(Cl)cc1)[C@H]1O[C@@H](n2ccc3c(N)ncnc32)[C@H](O)[C@@H]1O` [Example 3, (2R,3R,4S,5S)-2-(4-Aminopyrrolo[2,3-d]pyrimidin-7-yl)-5-[(1R)-1-(4-chlorophenyl)-1-hydroxy-ethyl]tetrahydrofuran-3,4-diol], for which 44 nM corresponded to half-maximal inhibition in test [1] (IC50). For the same compound, the ED50 in test [2] was ≤ 30 mg/kg.
